Results from patent publication US6355799B1, “Substituted benzene compounds, process for their preparation, and herbicidal and defoliant compositions containing them” (ISK Americas Incorporated, priority 1997, dated 2002).

Key:
Type in all cases: in vivo
[1] = system: upland rice (Oryza sp., var. Tebonnet, RICE); experiment: Post-emerge test, crop safety; details: rating scale 0-100 (0 no damage, 100 complete death), 14 days after application
How it was run: (§1)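 Compounds in acetone were track-sprayed at 187 l/ha, 15–1000 g ai/ha, onto sandy loam pots. Pre-emerge seeds were sown one day before spraying, with surface watering afterwards. Post-emerge plants were at the 2–3 leaf stage and sprayed with 0.25% v/v non-ionic surfactant. Injury was rated 0–100 at 14 days.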

[2] = system: field corn (Zea mays L., var. Dekalb 535, CORN); experiment: Post-emerge test, crop safety; details: rating scale 0-100 (0 no damage, 100 complete death), 14 days after application
How it was run: as §1

[3] = system: upland rice (Oryza sp., var. Tebonnet, RICE); experiment: Pre-emerge test, crop safety; details: rating scale 0-100, 14 days after application
How it was run: as §1

[4] = system: field corn (Zea mays L., var. Dekalb 535, CORN); experiment: Pre-emerge test, crop safety; details: rating scale 0-100, 14 days after application
How it was run: as §1

[5] = system: johnsongrass (Sorghum halepense, SORHA); experiment: Post-emerge test, greenhouse herbicide activity screening; details: rating scale 0-100 (0 no damage, 100 complete death), 14 days after application
How it was run: (§2)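 Herbicidal damage is scored 0 (none) to 100 (complete plant death) two weeks after a simulated field spray. Rates span 15–1000 g ai/ha, delivered in acetone at 187 l/ha. For post-emergence treatments, plants have 2–3 leaves and the spray carries 0.25% v/v non-ionic surfactant.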

[6] = system: green foxtail (Setaria viridis, SETVI); experiment: as above; details: rating scale 0-100 (0 no damage, 100 complete death), 14 days after application
How it was run: as §2

[7] = system: ivyleaf morningglory (Ipomoea hederacea, IPOHE); experiment: as above; details: rating scale 0-100 (0 no damage, 100 complete death), 14 days after application
How it was run: as §2

[8] = system: large crabgrass (Digitaria sanguinalis, DIGSA); experiment: as above; details: rating scale 0-100 (0 no damage, 100 complete death), 14 days after application
How it was run: as §2

[9] = system: lambsquarters (Chenopodium album, CHEAL); experiment: as above; details: rating scale 0-100 (0 no damage, 100 complete death), 14 days after application
How it was run: as §2

[10] = system: sicklepod (Cassia obtusifolia, CASOB); experiment: as above; details: rating scale 0-100 (0 no damage, 100 complete death), 14 days after application
How it was run: as §2

[11] = system: barnyardgrass (Echinochloa crus-galli, ECHCG); experiment: as above; details: rating scale 0-100 (0 no damage, 100 complete death), 14 days after application
How it was run: as §2

[12] = system: redroot pigweed (Amaranthus retroflexus, AMARE); experiment: as above; details: rating scale 0-100 (0 no damage, 100 complete death), 14 days after application
How it was run: as §2

[13] = system: velvetleaf (Abutilon theophrasti, ABUTH); experiment: as above; details: rating scale 0-100 (0 no damage, 100 complete death), 14 days after application
How it was run: as §2

[14] = system: johnsongrass (Sorghum halepense, SORHA); experiment: Pre-emerge test, greenhouse herbicide activity screening; details: rating scale 0-100, 14 days after application
How it was run: as §1

[15] = system: green foxtail (Setaria viridis, SETVI); experiment: as above; details: rating scale 0-100, 14 days after application
How it was run: as §1

[16] = system: ivyleaf morningglory (Ipomoea hederacea, IPOHE); experiment: as above; details: rating scale 0-100, 14 days after application
How it was run: as §1

[17] = system: large crabgrass (Digitaria sanguinalis, DIGSA); experiment: as above; details: rating scale 0-100, 14 days after application
How it was run: as §1

[18] = system: lambsquarters (Chenopodium album, CHEAL); experiment: as above; details: rating scale 0-100, 14 days after application
How it was run: as §1

[19] = system: sicklepod (Cassia obtusifolia, CASOB); experiment: as above; details: rating scale 0-100, 14 days after application
How it was run: as §1

[20] = system: barnyardgrass (Echinochloa crus-galli, ECHCG); experiment: as above; details: rating scale 0-100, 14 days after application
How it was run: as §1

[21] = system: velvetleaf (Abutilon theophrasti, ABUTH); experiment: as above; details: rating scale 0-100, 14 days after application
How it was run: as §1

[22] = system: redroot pigweed (Amaranthus retroflexus, AMARE); experiment: as above; details: rating scale 0-100, 14 days after application
How it was run: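 Rating: 0–100 visual injury, 14 DAA. Application: acetone, 187 l/ha, 15–1000 g ai/ha, flat-fan track sprayer with nozzle 40–45 cm above soil or canopy. Post-emerge runs used 0.25% v/v surfactant on 2–3 leaf plants.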

COc1c(Cl)cc(F)c(-n2c(=O)cc(C(F)(F)F)n(C)c2=O)c1CC(Cl)C(=O)OCCOc1ccccc1 (single isomer, unassigned) [14-27]
Post-emerge phytotoxicity rating RICE (crop damage) ([1]; Rate 63 g ai/ha): 0 | Post-emerge phytotoxicity rating RICE (crop damage) ([1]; Rate 250 g ai/ha): 0 | Post-emerge phytotoxicity rating CORN (crop damage) ([2]; Rate 63 g ai/ha): 5 | Post-emerge phytotoxicity rating CORN (crop damage) ([2]; Rate 250 g ai/ha): 10 | Pre-emerge phytotoxicity rating, crop damage RICE ([3]; 63 g ai/ha): 0 | Pre-emerge phytotoxicity rating, crop damage RICE ([3]; 250 g ai/ha): 0 | Pre-emerge phytotoxicity rating, crop damage CORN ([4]; 63 g ai/ha): 0 | Pre-emerge phytotoxicity rating, crop damage CORN ([4]; 250 g ai/ha): 0 | Post-emerge Herbicidal Activity, phytotoxicity rating SORHA ([5]; Rate 63 g ai/ha): 0 | Post-emerge Herbicidal Activity, phytotoxicity rating SORHA ([5]; Rate 250 g ai/ha): 10 | Post-emerge Herbicidal Activity, phytotoxicity rating SETVI ([6]; Rate 63 g ai/ha): 0 | Post-emerge Herbicidal Activity, phytotoxicity rating SETVI ([6]; Rate 250 g ai/ha): 20 | Post-emerge Herbicidal Activity, phytotoxicity rating IPOHE ([7]; Rate 63 g ai/ha): 70 | Post-emerge Herbicidal Activity, phytotoxicity rating IPOHE ([7]; Rate 250 g ai/ha): 50 | Post-emerge Herbicidal Activity, phytotoxicity rating DIGSA ([8]; Rate 63 g ai/ha): 70 | Post-emerge Herbicidal Activity, phytotoxicity rating DIGSA ([8]; Rate 250 g ai/ha): 95 | Post-emerge Herbicidal Activity, phytotoxicity rating CHEAL ([9]; Rate 63 g ai/ha): 90 | Post-emerge Herbicidal Activity, phytotoxicity rating CHEAL ([9]; Rate 250 g ai/ha): 100 | Post-emerge Herbicidal Activity, phytotoxicity rating CASOB ([10]; Rate 63 g ai/ha): 50 | Post-emerge Herbicidal Activity, phytotoxicity rating CASOB ([10]; Rate 250 g ai/ha): 30 | Post-emerge Herbicidal Activity, phytotoxicity rating ECHCG ([11]; Rate 63 g ai/ha): 99 | Post-emerge Herbicidal Activity, phytotoxicity rating ECHCG ([11]; Rate 250 g ai/ha): 100 | Post-emerge Herbicidal Activity, phytotoxicity rating AMARE ([12]; Rate 63 g ai/ha): 50 | Post-emerge Herbicidal Activity, phytotoxicity rating AMARE ([12]; Rate 250 g ai/ha): 90 | Post-emerge Herbicidal Activity, phytotoxicity rating ABUTH ([13]; Rate 63 g ai/ha): 70 | Post-emerge Herbicidal Activity, phytotoxicity rating ABUTH ([13]; Rate 250 g ai/ha): 80 | Pre-emerge herbicidal activity, phytotoxicity rating SORHA ([14]; 63 g ai/ha): 0 | Pre-emerge herbicidal activity, phytotoxicity rating SORHA ([14]; 250 g ai/ha): 0 | Pre-emerge herbicidal activity, phytotoxicity rating SETVI ([15]; 63 g ai/ha): 0 | Pre-emerge herbicidal activity, phytotoxicity rating SETVI ([15]; 250 g ai/ha): 0 | Pre-emerge herbicidal activity, phytotoxicity rating IPOHE ([16]; 63 g ai/ha): 0 | Pre-emerge herbicidal activity, phytotoxicity rating IPOHE ([16]; 250 g ai/ha): 0 | Pre-emerge herbicidal activity, phytotoxicity rating DIGSA ([17]; 63 g ai/ha): 0 | Pre-emerge herbicidal activity, phytotoxicity rating DIGSA ([17]; 250 g ai/ha): 90 | Pre-emerge herbicidal activity, phytotoxicity rating CHEAL ([18]; 63 g ai/ha): 0 | Pre-emerge herbicidal activity, phytotoxicity rating CHEAL ([18]; 250 g ai/ha): 90 | Pre-emerge herbicidal activity, phytotoxicity rating CASOB ([19]; 63 g ai/ha): 0 | Pre-emerge herbicidal activity, phytotoxicity rating CASOB ([19]; 250 g ai/ha): 0 | Pre-emerge herbicidal activity, phytotoxicity rating ECHCG ([20]; 63 g ai/ha): 0 | Pre-emerge herbicidal activity, phytotoxicity rating ECHCG ([20]; 250 g ai/ha): 0 | Pre-emerge herbicidal activity, phytotoxicity rating ABUTH ([21]; 63 g ai/ha): 0 | Pre-emerge herbicidal activity, phytotoxicity rating ABUTH ([21]; 250 g ai/ha): 30 | Pre-emerge herbicidal activity, phytotoxicity rating AMARE ([22]; 63 g ai/ha): 50 | Pre-emerge herbicidal activity, phytotoxicity rating AMARE ([22]; 250 g ai/ha): 100
